Reference: patent publication US6100074A, “Mutant mono-oxygenase cytochrome P-450 cam” (BG plc, priority 1994, dated 2000)
Read-outs that look alike come from different tables or passages of the source.

Columns and labels:
wild type P450cam [1] = target: T1, wild type P450cam (Pseudomonas putida, UniProt P00183); test: biochemical; assay type: binding; settings: read-out: Vs DTT (percentage displacement of DTT bound to P-450)
Target sequence in this assay (P00183 whole entry): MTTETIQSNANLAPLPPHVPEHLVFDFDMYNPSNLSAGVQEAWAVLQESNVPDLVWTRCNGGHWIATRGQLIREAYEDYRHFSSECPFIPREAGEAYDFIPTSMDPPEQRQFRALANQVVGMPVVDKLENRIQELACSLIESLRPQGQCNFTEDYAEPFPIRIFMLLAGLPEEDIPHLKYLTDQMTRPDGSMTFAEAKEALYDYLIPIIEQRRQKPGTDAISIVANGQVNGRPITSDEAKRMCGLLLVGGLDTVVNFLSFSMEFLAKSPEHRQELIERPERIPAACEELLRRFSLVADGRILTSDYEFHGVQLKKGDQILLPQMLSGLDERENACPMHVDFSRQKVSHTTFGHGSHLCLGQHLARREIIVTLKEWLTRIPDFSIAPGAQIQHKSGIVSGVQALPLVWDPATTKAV

P-450cam mutant Y96A = P-450cam mutant Y96A (Pseudomonas putida, UniProt P00183, Y97A); test: biochemical; assay type: binding
[2] = target: T2, P450cam mutant Y96F, C334A (Pseudomonas putida, UniProt P00183, C335A/Y97F); assay type: biochemical, P. putida
T2 construct: reconstituted with putidaredoxin and putidaredoxin reductase
Experimental: (§1) […] The enzymatic reaction was initiated by firstly adding NADH to a total concentration of 2 mM. Further four aliquots of NADH (to increase the NADH concentration by 1 mM each time) were added in intervals of 5 min and the reaction quenched after 30 min by adding 0.5 ml chloroform. The chloroform layer was analysed by gas chromatography.
(§2) Reaction products for some substrate compounds have been purified by high performance liquid chromatography and identified by mass spectroscopy, nuclear magnetic resonance, and/or co-elution. […] Table 4(a) to 4(h) details the product distributions for mutant and substrate combinations where this has been elucidated to date.
(§3) Product structure and distributions following oxidation of substrates
(§4) active site mutants. All mutants shown below also contain the C334A

[3] = target: T3, P450cam mutant Y96A, C334A (Pseudomonas putida, UniProt P00183, C335A/Y97A); assay type: biochemical, P. putida
T3 construct: reconstituted with putidaredoxin and putidaredoxin reductase
Experimental: as §1, §2, §3, §4

[4] = target: T4, P450cam mutant Y96L, C334A (Pseudomonas putida, UniProt P00183, C335A/Y97L); test: Product distribution following oxidation of substrates, Y96L (also C334A); assay type: biochemical, P. putida
T4 construct: reconstituted with putidaredoxin and putidaredoxin reductase
Experimental: as §1, §2, §3, §4

wild type P450cam [5] = target: T1, wild type P450cam; assay type: binding; settings: Wild type; 200 μM test compound, phosphate buffer pH 7.4
Target sequence in this assay (P00183 whole entry): as above

wild type P450cam [6] = target: T1, wild type P450cam; test: Product distribution following oxidation of substrates, WT; assay type: biochemical, P. putida; design: reconstituted with putidaredoxin and putidaredoxin reductase
Experimental: as §1, §2, §3
Target sequence in this assay (P00259 whole entry): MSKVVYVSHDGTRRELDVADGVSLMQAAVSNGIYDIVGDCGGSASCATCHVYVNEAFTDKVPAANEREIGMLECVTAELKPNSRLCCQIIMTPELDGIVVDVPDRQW
Target sequence in this assay (P00183 whole entry): as the sequence (P00183 whole entry) above
Target sequence in this assay (P16640 whole entry, further chain): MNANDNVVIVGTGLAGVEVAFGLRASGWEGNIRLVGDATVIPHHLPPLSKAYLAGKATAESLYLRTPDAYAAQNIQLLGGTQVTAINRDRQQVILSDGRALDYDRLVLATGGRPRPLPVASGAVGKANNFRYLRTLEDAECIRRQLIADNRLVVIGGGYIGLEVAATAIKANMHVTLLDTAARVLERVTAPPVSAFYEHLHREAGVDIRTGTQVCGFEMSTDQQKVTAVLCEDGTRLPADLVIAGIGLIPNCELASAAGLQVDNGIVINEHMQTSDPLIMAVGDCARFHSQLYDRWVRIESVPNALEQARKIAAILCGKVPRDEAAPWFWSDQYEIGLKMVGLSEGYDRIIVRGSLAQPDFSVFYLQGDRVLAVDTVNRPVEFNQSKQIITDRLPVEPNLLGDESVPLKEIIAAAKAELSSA

[7] = target: T5, P450cam mutant Y96V, C334A (Pseudomonas putida, UniProt P00183, C335A/Y97V); test: Product distribution following oxidation of substrates, Y96V (also C334A); assay type: biochemical, P. putida
T5 construct: reconstituted with putidaredoxin and putidaredoxin reductase
Experimental: as §1, §2, §3, §4

[8] = target: T6, P450cam mutant F87A-F96G-F193A (C334A) (Pseudomonas putida, UniProt P00183, C335A/F194A/F88A/Y97G); assay type: biochemical, P. putida
T6 construct: reconstituted with putidaredoxin and putidaredoxin reductase
Experimental: as §1, §2, §3, §4

[9] = Wild type, 200 μM DTT, 200 μM test compound, phosphate buffer
[10] = Mutant Y96A, 200 μM DTT, 200 μM test compound, phosphate buffer, read-out: Vs DTT (percentage displacement of DTT bound to P-450)

Chain of P-450cam mutant Y96A (P00183 2-415 Y97A): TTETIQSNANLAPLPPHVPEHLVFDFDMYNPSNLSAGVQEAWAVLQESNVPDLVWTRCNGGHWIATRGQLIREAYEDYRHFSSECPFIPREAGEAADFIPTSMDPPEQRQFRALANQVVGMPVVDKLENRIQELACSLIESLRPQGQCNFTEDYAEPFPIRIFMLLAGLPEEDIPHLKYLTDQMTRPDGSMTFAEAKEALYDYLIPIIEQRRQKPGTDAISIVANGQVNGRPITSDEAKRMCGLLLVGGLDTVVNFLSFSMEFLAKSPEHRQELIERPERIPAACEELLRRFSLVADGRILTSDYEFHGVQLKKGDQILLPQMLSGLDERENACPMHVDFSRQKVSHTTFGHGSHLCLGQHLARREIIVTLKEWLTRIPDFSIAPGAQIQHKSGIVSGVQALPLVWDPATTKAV
T2 sequence (P16640 whole entry): as the sequence (P16640 whole entry, further chain) above
T2 sequence (P00183 2-415 Y97F/C335A): as the sequence (P00183 2-415 Y97A) above, with A96F, C334A counted along it
T2 sequence (P00259 whole entry, further chain): as the sequence (P00259 whole entry) above
T5 sequence (P16640 whole entry): as the sequence (P16640 whole entry, further chain) above
T5 sequence (P00259 whole entry, further chain): as the sequence (P00259 whole entry) above
T5 sequence (P00183 2-415 Y97V/C335A): as the sequence (P00183 2-415 Y97A) above, with A96V, C334A counted along it
T3 sequence (P00259 whole entry): as the sequence (P00259 whole entry) above
T3 sequence (P00183 2-415 Y97A/C335A): as the sequence (P00183 2-415 Y97A) above, with C334A counted along it
T3 sequence (P16640 whole entry, further chain): as the sequence (P16640 whole entry, further chain) above
T6 sequence (P00259 whole entry): as the sequence (P00259 whole entry) above
T6 sequence (P16640 whole entry, further chain): as the sequence (P16640 whole entry, further chain) above
T6 sequence (P00183 2-415 F88A/Y97G/F194A/C335A): as the sequence (P00183 2-415 Y97A) above, with F87A, A96G, F193A, C334A counted along it
T4 sequence (P00259 whole entry): as the sequence (P00259 whole entry) above
T4 sequence (P16640 whole entry, further chain): as the sequence (P16640 whole entry, further chain) above
T4 sequence (P00183 2-415 Y97L/C335A): as the sequence (P00183 2-415 Y97A) above, with A96L, C334A counted along it

In the case of `C1=CCCCC1` [Cyclohexene], the inhibition at 200 µM (wild type P450cam [1]; [9]) was 5% and the percent displacement of bound DTT at 200 µM (P-450cam mutant Y96A; [10]) was 40%.
With `c1ccc(C2CCCCC2)cc1` [Cyclohexylbenzene] the Total products [2] was 1.1 area/10^5, the “Products (%): Cis-4-ol” value ([2]; cyclohexylbenzene) was 13% and the “Products (%): Trans-4-ol” value ([2]; cyclohexylbenzene) was 6%. The Total products [3] was 7.4 area/10^5, the “Products (%): 3-ol” value ([3]; cyclohexylbenzene) was 20% and the “Products (%): Cis-4-ol” value ([3]; cyclohexylbenzene) was 45%. For the same molecule, the “Products (%): Trans-4-ol” value ([3]; cyclohexylbenzene) was 15%, the inhibition at 200 µM (wild type P450cam [1]; [9]) was 20% and the Total products [4] was 10.4 area/10^5. The “Products (%): Cis-4-ol” value ([4]; cyclohexylbenzene) was 16%, the “Products (%): Trans-4-ol” value ([4]; cyclohexylbenzene) was 23% and the “ΔSpin high/low (percentage of P-450 converted from low- to high-spin)” value (wild type P450cam [5]) was 20%. The Total products (wild type P450cam [6]) was 0.8 area/10^5, the “Products (%): Cis-4-ol” value (wild type P450cam [6]; cyclohexylbenzene) was 12% and the “Products (%): Trans-4-ol” value (wild type P450cam [6]; cyclohexylbenzene) was 25%. For the same molecule, the Total products [7] was 12.5 area/10^5, the “Products (%): Cis-4-ol” value ([7]; cyclohexylbenzene) was 23% and the “Products (%): Trans-4-ol” value ([7]; cyclohexylbenzene) was 10%.
`O=C(c1ccccc1)C1CCCCC1` [Cyclohexylphenylketone] gave an inhibition at 200 µM (wild type P450cam [1]; [9]) of 30%.
In the case of `C1=CC2C3C=CC(C3)C2C1` (stereo not drawn) [Dicyclopentadiene], the inhibition at 200 µM (wild type P450cam [1]; [9]) was 80%, the “ΔSpin high/low (percentage of P-450 converted from low- to high-spin)” value (wild type P450cam [5]) was 50% and the percent displacement of bound DTT at 200 µM (P-450cam mutant Y96A; [10]) was 90%.
For `c1ccc(Oc2ccccc2)cc1` [Diphenylether], the inhibition at 200 µM (wild type P450cam [1]; [9]) was 5%, the “ΔSpin high/low (percentage of P-450 converted from low- to high-spin)” value (wild type P450cam [5]) was 10% and the percent displacement of bound DTT at 200 µM (P-450cam mutant Y96A; [10]) was 50%.
In the case of `CCc1ccccc1` [Ethylbenzene], the percent displacement of bound DTT at 200 µM (P-450cam mutant Y96A; [10]) was 40%.
For `c1ccc2c(c1)-c1cccc3cccc-2c13` [Fluoranthene], the Total products [8] was 0.2 area/10^6, the “Products (%): A” value ([8]; fluoranthene) was 0% and the “Products (%): B” value ([8]; fluoranthene) was 100%. For the same molecule, the Total products [3] was 2.7 area/10^6, the “Products (%): A” value ([3]; fluoranthene) was 84% and the “Products (%): B” value ([3]; fluoranthene) was 16%. For the same molecule, the inhibition at 200 µM (wild type P450cam [1]) was 5%, the Total products (wild type P450cam [6]) was 0 area/10^6 and the “Products (%): A” value (wild type P450cam [6]; fluoranthene) was 0%. The “Products (%): B” value (wild type P450cam [6]; fluoranthene) was 0% and the inhibition at 200 µM (P-450cam mutant Y96A; read-out: Vs DTT (percentage displacement of DTT bound to P-450)) was 10%.
With `c1ccc2c(c1)Cc1ccccc1-2` [Fluorene] the percent displacement of bound DTT at 200 µM (P-450cam mutant Y96A; [10]) was 50%.
Molecule `C=CC(=C)C` [Isoprene] has a percent displacement of bound DTT at 200 µM (P-450cam mutant Y96A; [10]) of 10%.
In the case of `CC1CCCCC1` [Methylcyclohexane], the inhibition at 200 µM (wild type P450cam [1]; [9]) was 50%, the “ΔSpin high/low (percentage of P-450 converted from low- to high-spin)” value (wild type P450cam [5]) was 50% and the “Vs DTT (percentage displacement of DTT bound to P-450)” value (P-450cam mutant Y96A; Mutant Y96A, 200 μM DTT, 200 μM test compound, phosphate buffer, 200 µM) was 70%. For the same molecule, the percent displacement of bound DTT at 200 µM (P-450cam mutant Y96A; [10]) was 60%.
For `c1ccc(CNc2ccccc2)cc1` [N-Phenylbenzylamine], the inhibition at 200 µM (wild type P450cam [1]; [9]) was 5%.
Work on `O=C(c1ccccc1)c1ccc2ccccc2c1` [Naphthylphenylketone] yielded an inhibition at 200 µM (wild type P450cam [1]; [9]) of 5% and a percent displacement of bound DTT at 200 µM (P-450cam mutant Y96A; [10]) of 5%.
Work on `CCCCCCCC/C=C\CCCCCCCC(=O)O` [Oleic acid] yielded an inhibition at 200 µM (wild type P450cam [1]; [9]) of ~10% and a percent displacement of bound DTT at 200 µM (P-450cam mutant Y96A; [10]) of ~20%.
`O=C(Oc1ccccc1)c1ccccc1` [Phenylbenzoate] showed an inhibition at 200 µM (wild type P450cam [1]; [9]) of 5%.
Work on `c1cc2ccc3cccc4ccc(c1)c2c34` [Pyrene] yielded a Total products [2] of 1.5 area/10^6, a Total products [8] of 0.02 area/10^6 and a Total products [3] of 1.2 area/10^6. For the same molecule, the Total products [4] was 1.5 area/10^6, the Total products (wild type P450cam [6]) was 0 area/10^6 and the Total products [7] was 1.6 area/10^6.
`CCCCCCCCCCCCOS(=O)(=O)O` [SDS] gave an inhibition at 200 µM (wild type P450cam [1]; [9]) of 20% and a percent displacement of bound DTT at 200 µM (P-450cam mutant Y96A; [10]) of 60%.
`CC(C)=CCC/C(C)=C/CC/C(C)=C/CC/C=C(\C)CC/C=C(\C)CCC=C(C)C` [Squalene] gave a percent displacement of bound DTT at 200 µM (P-450cam mutant Y96A; [10]) of 20%.
`C=Cc1ccccc1` [Styrene] gave a percent displacement of bound DTT at 200 µM (P-450cam mutant Y96A; [10]) of 30%.
Work on `Cc1ccccc1` [Toluene] yielded a percent displacement of bound DTT at 200 µM (P-450cam mutant Y96A; [10]) of 30%.
`C(=C/c1ccccc1)/c1ccccc1` [cis-Stilbene] showed an inhibition at 200 µM (wild type P450cam [1]; [9]) of 20% and a percent displacement of bound DTT at 200 µM (P-450cam mutant Y96A; [10]) of 50%.
In the case of `CCCCCCCCCCCC` [n-Dodecane], the percent displacement of bound DTT at 200 µM (P-450cam mutant Y96A; [10]) was 5%.
`CCCCCCCCCCC` [n-Undecane] gave a percent displacement of bound DTT at 200 µM (P-450cam mutant Y96A; [10]) of 20%.
`C1CC[C@H]2CCCC[C@@H]2C1` [trans-Decahydro naphthalene] was tested, and the inhibition at 200 µM (wild type P450cam [1]; [9]) was 10%, the “ΔSpin high/low (percentage of P-450 converted from low- to high-spin)” value (wild type P450cam [5]) was 20% and the percent displacement of bound DTT at 200 µM (P-450cam mutant Y96A; [10]) was 70%.
